Results as given in patent US9630001B2, “Methods for modulating osteochondral development using bioelectric stimulation” (MedRelief Inc., priority 2005, dated 2017).

Test system: Normal human cartilage cells (HCC)
Test: Cell growth assessed by DNA content of the cell layer
Assay type: cell-based
Details: 0.1% serum, PEMF 40 microAmps once every 24 hours, measured after 72 hours, L-NAME co-administered
Experimental: Normal human cartilage cells (HCC; CAMBREX®, Walkersville, Md.) were plated in rectangular cell chambers in monolayer. PEMF application was capacitively coupled through a niobium electrode bridge system which allowed a time varying current to flow uniformly through the chambers. A pulse-burst B-type signal as described herein is composed of a 10-msec burst of asymmetric rectangular pulses, 200/28 microseconds in width, repeated at 15 Hz. The PEMF signal was applied for 30 minutes per treatment. Cell growth was assessed by DNA content of the cell layer. Nitric oxide (NO) content of culture media was assessed by the Griess reaction using an assay kit from INVITROGEN INC.® (Carlsbad, Calif.). Results are expressed as micromoles of NO per cell number as assessed by DNA content of the cell layer.

COC(=O)[C@@H](N)CCCNC(=N)N[N+](=O)[O-] [L-NAME, N(G)-nitro-1-arginine methyl ester]
effect on PEMF-increased cell number (DNA, FIG. 7): attenuated
